Source: patent US4952704A, “Bis-(pyrrolidonyl alkylene) biguanides” (GAF Chemicals Corporation, priority 1989, dated 1990)
≈ marks a conversion by molar mass, not a printed value. Read-outs that look alike come from different tables or passages of the source.

Key:
E. Coli = test: Minimum inhibitory concentration, E. Coli (Gram negative); type: cell-based; conditions: Escherichia coli
Experimental: (§1) The minimum inhibitory concentrations (MIC) against different Gram positive and Gram negative microorganisms, and fungi, were determined and the results are shown in Table 2 below.

Ps. aer. = test: Minimum inhibitory concentration, Ps. aer. (Gram negative); type: cell-based
Experimental: as §1

Strept. py. = test: Minimum inhibitory concentration, Strept. py. (Gram positive); type: cell-based
Experimental: as §1

Staph. aur. = test: Minimum inhibitory concentration, Staph. aur. (Gram positive); type: cell-based
Experimental: as §1

Fungi = test: Minimum inhibitory concentration, Fungi; type: cell-based
Experimental: as §1

[1] = Solubility in Water (Table 1); type: physicochemical
Description: The results in Table I below illustrates the water solubility of the free base and hydrochloride salts of the invention versus chlorhexidine.

[2] = cited from earlier work
bacterial spores = conditions: room temperature; cited from earlier work
bacteria = conditions: cited from earlier work
[3] = cited from earlier work; remark: listed apart in the source
[4] = HCl salt, pH 5.5, read-out: Solubility in water, HCl Salt (pH 5.5)
[5] = free base, pH 8.5, read-out: Solubility in water, Free Base (pH 8.5)

Row | SMILES | MIC (E. Coli) | MIC (Ps. aer.) | MIC (Strept. py.) | MIC (Staph. aur.) | MIC (Fungi) | solubility [1, 4] | solubility [1, 5] | water solubility for the free base [2] | activity against bacterial spores (bacterial spores) | antibacterial activity at low pH (bacteria; pH below 5) | antibacterial activity, pH dependence (bacteria; pH range 5-8) | compatibility in formulations containing surface active agents [3]
1 | N=C(NCCCCCCNC(=N)NC(=N)Nc1ccc(Cl)cc1)NC(=N)Nc1ccc(Cl)cc1 [Chlorhexidine gluconate, reference compound] | 5 µg/mL | 50 µg/mL | 5 µg/mL | 2.5 µg/mL | > 200 µg/mL | – | – | – | – | – | – | –
2 | [H]/N=C(\N/C(=N/[H])NCCCCCCNC(=N)NC(=N)Nc1ccc(Cl)cc1)Nc1ccc(Cl)cc1 [Chlorhexidine, 1,6-bis(4-chlorophenylbiguanido)-hexane] | – | – | – | – | – | 18 mg/mL | 0.08 mg/mL (≈ 158 µM) | low water solubility | inactivity against bacterial spores | deteriorates | pH dependent | incompatability
3 | N=C(NCCCCCCNC(=N)NC(=N)NCCN1CCCC1=O)NC(=N)NCCN1CCCC1=O [Ex. 4, 1,6-Bis[1-(2-Pyrrolidonylethyl)biguanido]hexane:2HCl] | 250 µg/mL | 250 µg/mL | ≤ 50 µg/mL | ≤ 100 µg/mL | 100 µg/mL | 500 mg/mL | 50 mg/mL | – | – | – | – | –
4 | N=C(NCCCCCCCCCCCCNC(=N)NC(=N)NCCN1CCCC1=O)NC(=N)NCCN1CCCC1=O [Ex. 5, 1,12-Bis[1-(2-Pyrrolidonylethyl)biguanido]dodecane:2HCl] | 250 µg/mL | > 500 µg/mL | ≤ 50 µg/mL | ≤ 50 µg/mL | ≤ 50 µg/mL | 500 mg/mL | 20 mg/mL | – | – | – | – | –
5 | N=C(NCCOCCOCCNC(=N)NC(=N)NCCN1CCCC1=O)NC(=N)NCCN1CCCC1=O [Ex. 6, 1,2-Bis[1-(2-pyrrolidonylethyl)-5-(2-Ethoxybiguanido)]ethane:2HCl] | 100 µg/mL | ≤ 100 µg/mL | ≤ 50 µg/mL | > 500 µg/mL | ≤ 50 µg/mL | 500 mg/mL | 500 mg/mL | – | – | – | – | –
